From publication PMC8087116 (European journal of pharmaceutical sciences : official …, 2017)

Columns and labels:
[1] = test system: HL-60-TB; test: NCI-60 screening, leukemia HL-60-TB; assay type: cell-based, human
[2] = test system: NCI-60 human tumor cell lines; conditions: for Inhibition against one or more cell lines: single dose 10 μM
[3] = test system: PC-3; test: NCI-60 screening, prostate PC-3; assay type: cell-based, human
[4] = test system: MOLT-4; test: NCI-60 screening, leukemia MOLT-4; assay type: cell-based, human
[5] = test system: HOP-92; test: NCI-60 screening, NSCL HOP-92; assay type: cell-based, human
[6] = test system: M14; test: NCI-60 dose-response, melanoma M14; assay type: cell-based, human; conditions: M14 melanoma cell line, five-concentration dose-response
[7] = test system: CCRF-CEM; test: NCI-60 screening, leukemia CCRF-CEM; assay type: cell-based, human
[8] = test system: COLO-205; test: NCI-60 dose-response, colon COLO-205; assay type: cell-based, human; conditions: COLO-205 colon cancer cell line, five-concentration dose-response
[9] = test system: SK-MEL-5; test: NCI-60 dose-response, melanoma SK-MEL-5; assay type: cell-based, human; conditions: SK-MEL-5 melanoma cell line, five-concentration dose-response
[10] = test system: MDA-MB-231/ATCC; test: NCI-60 dose-response, breast MDA-MB-231/ATCC; assay type: cell-based, human; conditions: MDA-MB-231/ATCC breast cancer cell line, five-concentration dose-response
[11] = test system: SR cell line; test: NCI-60 dose-response, leukemia SR; assay type: cell-based, human; conditions: five-concentration dose-response
[12] = test system: MALME-3 M; test: NCI-60 dose-response, melanoma MALME-3 M; assay type: cell-based, human; conditions: MALME-3 M melanoma cell line, five-concentration dose-response
[13] = test system: MDA-MB-468; test: NCI-60 screening, breast MDA-MB-468; assay type: cell-based, human
[14] = test system: SW-620; test: NCI-60 dose-response, colon SW-620; assay type: cell-based, human; conditions: SW-620 colon cancer cell line, five-concentration dose-response
[15] = test system: LOX IMVI; test: NCI-60 dose-response, melanoma LOX IMVI; assay type: cell-based, human; conditions: LOX IMVI melanoma cell line, five-concentration dose-response
[16] = test system: RPMI-8226; test: NCI-60 screening, leukemia RPMI-8226; assay type: cell-based, human
[17] = test system: HOP-62; test: NCI-60 screening, NSCL HOP-62; assay type: cell-based, human
[18] = test system: NCI-H23; test: NCI-60 screening, NSCL NCI-H23; assay type: cell-based, human

COC(=O)[C@H](NS(=O)(=O)N(c1cccc(F)c1)C1CCN(Cc2ccc(F)cc2)CC1)C(C)C [Compound 18]
Inhibition of sensitive tumor cell lines at 10 μM conc. [1]: Leukemia: HL-60-TB (56%)
Inhibition against one or more cell lines [2]: > 50%

COC(=O)[C@@H](NS(=O)(=O)N(c1ccc(F)cc1)C1CCN(C(=O)c2ccc(F)cc2)CC1)C(C)C [Compound 36]
Inhibition of sensitive tumor cell lines at 10 μM conc. [1]: Leukemia: HL-60-TB (57%)
Inhibition against one or more cell lines [2]: > 50%

COC(=O)[C@@H](CC(C)C)NS(=O)(=O)N(c1cccc(F)c1)C1CCN(Cc2ccc(C(F)(F)F)cc2)CC1 [Compound 25]
Inhibition of sensitive tumor cell lines at 10 μM conc. [3]: 50%
Inhibition of sensitive tumor cell lines at 10 μM conc. [4]: 56%
Inhibition of sensitive tumor cell lines at 10 μM conc. [5]: 60%
Inhibition against one or more cell lines [2]: > 50%

COC(=O)[C@@H](C)CNS(=O)(=O)N(c1cc(C(F)(F)F)cc(C(F)(F)F)c1)C1CCN(Cc2ccc(F)cc2)CC1 [Compound 26]
GI50 [6]: 3.75 µM
GI50 ([7]; CCRF-CEM leukemia cell line, five-concentration dose-response): 12.8 µM
GI50 [8]: 1.88 µM
GI50 [9]: 3.19 µM
GI50 [10]: 12.7 µM
GI50 [11]: 3.18 µM
GI50 [12]: 6.89 µM
Cytotoxicity as indicated by LC50 values, words [2]: not cytotoxic for most of the cell lines
GI50 ([2]; all remaining subpanel cell lines of NCI-60): ≤ 21 µM
TGI (total growth inhibition, cytostatic activity), words ([2]; dose-response, NCI-60 panel): total growth inhibition of most of the cell lines at moderate concentrations
GI50 ([13]; MDA-MB-468 breast cancer cell line, five-concentration dose-response): 3.25 µM
GI50 [14]: 11.1 µM
GI50 [15]: 8.1 µM

O=S(=O)(c1ccc(Br)cc1)N(c1cccc(F)c1)C1CCN(Cc2ccc(F)cc2)CC1 [Compound 49]
Inhibition of sensitive tumor cell lines at 10 μM conc. ([7]; 10 μM, Leukemia CCRF-CEM): 51%
Inhibition against one or more cell lines [2]: > 50%
Inhibition of sensitive tumor cell lines at 10 μM conc. ([13]; 10 μM, Breast MDA-MB-468): 53%
Inhibition of sensitive tumor cell lines at 10 μM conc. [16]: 65%

CC(C)[C@@H](NS(=O)(=O)N(c1cccc(F)c1)C1CCN(Cc2ccc(O)cc2)CC1)C(=O)O [Compound 19]
Inhibition against one or more cell lines [2]: > 50%
Inhibition of sensitive tumor cell lines at 10 μM conc. [17]: 88%
Inhibition of sensitive tumor cell lines at 10 μM conc. [18]: 58%

COC(=O)[C@@H](OC(=O)NS(=O)(=O)N(c1ccc(F)cc1)C1CCN(Cc2ccc(F)cc2)CC1)C(C)C [Compound 39]
Inhibition against one or more cell lines [2]: > 50%

COC(=O)[C@H](NS(=O)(=O)N(c1ccc(F)cc1)C1CCN(Cc2ccc(F)cc2)CC1)C(C)C [Compound 37]
Inhibition of sensitive tumor cell lines at 10 μM conc. [1]: Leukemia: HL-60-TB (60%)
Inhibition against one or more cell lines [2]: > 50%
